Measurements published in patent US8178677B2, “Hydroxyalkyl substituted imidazoquinolines” (3M Innovative Properties Company, priority 2005, dated 2012).
Read-outs that look alike come from different tables or passages of the source.

Tests used:
[1] = test system: interferon (α) (IFN-α) induction in human peripheral blood mononuclear cells (PBMC); experiment: Cytokine induction in human cells (PBMC): IFN-α secreted into culture media, ELISA; type: cell-based; settings: read-out: Minimum Effective Concentration (μM) IFN
Text: (§1) Cytokine Induction in Human Cells
(§2) An in vitro human blood cell system is used to assess cytokine induction. Activity is based on the measurement of interferon (α) and tumor necrosis factor (α) (IFN-α and TNF-α, respectively) secreted into culture media as described by Testerman et. al. in “Cytokine Induction by the Immunomodulators Imiquimod and S-27609”, Journal of Leukocyte Biology, 58, 365-372 (September, 1995).
(§3) Blood Cell Preparation for Culture
(§4) Whole blood from healthy human donors is collected by venipuncture into vacutainer tubes or syringes containing EDTA. Peripheral blood mononuclear cells (PBMC) are separated from whole blood by density gradient centrifugation using HISTOPAQUE-1077 (Sigma, St. Louis, Mo.) or Ficoll-Paque Plus (Amersham Biosciences Piscataway, N.J.). Blood is diluted 1:1 with Dulbecco's Phosphate Buffered Saline (DPBS) or Hank's Balanced Salts Solution (HBSS). Alternately, whole blood is placed in Accuspin (Sigma) or LeucoSep (Greiner Bio-One, Inc., Longwood, Fla.) centrifuge frit tubes containing density gradient medium. The PBMC layer is collected and washed twice with DPBS or HBSS and re-suspended at 4×10^6 cells/mL in RPMI complete. The PBMC suspension is added to 96 well flat bottom sterile tissue culture plates containing an equal volume of RPMI complete media containing test compound.
(§5) The compounds are solubilized in dimethyl sulfoxide (DMSO). The DMSO concentration should not exceed a final concentration of 1% for addition to the culture wells. The compounds are generally tested at concentrations ranging from 30-0.014 μM. Controls include cell samples with media only, cell samples with DMSO only (no compound), and cell samples with reference compound.
(§6) The solution of test compound is added at 60 μM to the first well containing RPMI complete and serial 3 fold dilutions are made in the wells. The PBMC suspension is then added to the wells in an equal volume, bringing the test compound concentrations to the desired range (usually 30-0.014 μM). The final concentration of PBMC suspension is 2×10^6 cells/mL. The plates are covered with sterile plastic lids, mixed gently and then incubated for 18 to 24 hours at 37° C. in a 5% carbon dioxide atmosphere.
(§7) Following incubation the plates are centrifuged for 10 minutes at 1000 rpm (approximately 200×g) at 4° C. The cell-free culture supernatant is removed and transferred to sterile polypropylene tubes. Samples are maintained at −30 to −70° C. until analysis. The samples are analyzed for IFN-α by ELISA and for TNF-α by IGEN/BioVeris Assay.
(§8) Interferon (α) and Tumor Necrosis Factor (α) Analysis
IFN-α concentration is determined with a human multi-subtype calorimetric sandwich ELISA (Catalog Number 41105) from PBL Biomedical Laboratories, Piscataway, N.J. Results are expressed in pg/mL.
(§9) In total, the data output of the assay consists of concentration values of TNF-α and IFN-α (y-axis) as a function of compound concentration (x-axis).
Analysis of the data has two steps. First, the greater of the mean DMSO (DMSO control wells) or the experimental background (usually 20 pg/mL for IFN-α and 40 pg/mL for TNF-α) is subtracted from each reading. If any negative values result from background subtraction, the reading is reported as “*”, and is noted as not reliably detectable. In subsequent calculations and statistics, “*”, is treated as a zero. Second, all background subtracted values are multiplied by a single adjustment ratio to decrease experiment to experiment variability. The adjustment ratio is the area of the reference compound in the new experiment divided by the expected area of the reference compound based on the past 61 experiments (unadjusted readings). […] The reference compound used is 2-[4-amino-2-ethoxymethyl-6,7,8,9-tetrahydro-α,α-dimethyl-1H-imidazo[4,5-c]quinolin-1-yl]ethanol hydrate (U.S. Pat. No. 5,352,784; Example 91) and the expected area is the sum of the median dose values from the past 61 experiments. […]

[2] = test system: tumor necrosis factor (α) (TNF-α) induction in human peripheral blood mononuclear cells (PBMC); experiment: Cytokine induction in human cells (PBMC): TNF-α secreted into culture media, ORIGEN M-Series immunoassay; type: cell-based; settings: for minimal effective concentration: Homo sapiens, PBMC, read-out: Minimum Effective Concentration (μM) TNF; for Maximal Response (pg/mL) TNF: background-subtracted
Text: as §1, §2, §3, §4, §5, §6, §7, §8
The TNF-α concentration is determined by ORIGEN M-Series Immunoassay and read on an IGEN M-8 analyzer from BioVeris Corporation, formerly known as IGEN International, Gaithersburg, Md. The immunoassay uses a human TNF-α capture and detection antibody pair (Catalog Numbers AHC3419 and AHC3712) from Biosource International, Camarillo, Calif. Results are expressed in pg/mL.
as §9
Analysis of the data has two steps. First, the greater of the mean DMSO (DMSO control wells) or the experimental background (usually 20 pg/mL for IFN-α and 40 pg/mL for TNF-α) is subtracted from each reading. If any negative values result from background subtraction, the reading is reported as “*”, and is noted as not reliably detectable. In subsequent calculations and statistics, “*”, is treated as a zero. Second, all background subtracted values are multiplied by a single adjustment ratio to decrease experiment to experiment variability. The adjustment ratio is the area of the reference compound in the new experiment divided by the expected area of the reference compound based on the past 61 experiments (unadjusted readings). […]

[3] = lowest tested concentration inducing IFN-α over 20 pg/mL, median where more than one experiment
[4] = lowest tested concentration inducing TNF-α over 40 pg/mL, median where more than one experiment
[5] = maximal response in dose response curve, reference-adjusted, median where more than one experiment, * = below background of 40 pg/mL

melting point [°C] | SMILES | minimal effective concentration [1, 3] [µM] | minimal effective concentration [2, 4] [µM] | minimal effective concentration ([1]; 18 to 24 hours incubation, tested 30-0.014 μM, lowest concentration inducing response over 20 pg/mL IFN-α, median of # experiments) [µM] | Maximal Response (pg/mL) TNF ([2]; 18 to 24 hours incubation, reference-adjusted maximal response of dose response curve, median of # experiments) | minimal effective concentration ([2]; 18 to 24 hours incubation, tested 30-0.014 μM, lowest concentration inducing response over 40 pg/mL TNF-α, median of # experiments) [µM] | Maximal Response (pg/mL) TNF [2, 5]
248 to 250 | CC(C)(Cn1c(CO)nc2c(N)nc3ccccc3c21)NC(=O)C1CCCCC1 [Example 5, N-[2-(4-Amino-2-hydroxymethyl-1H-imidazo[4,5-c]quinolin-1-yl)-1,1-dimethylethyl]cyclohexanecarboxamide] | 0.37 | 10 | – | – | – | –
209 to 212 | CC(C)(Cn1c(CCO)nc2c(N)nc3ccccc3c21)NS(C)(=O)=O [Example 6, N-{2-[4-Amino-2-(2-hydroxyethyl)-1H-imidazo[4,5-c]quinolin-1-yl]-1,1-dimethylethyl}methanesulfonamide] | 1.11 | 30 | 1.11 | * (TNF below experimental background of 40 pg/mL.) | > 30 | * (TNF below experimental background of 40 pg/mL.)
245 to 246 | Nc1nc2ccccc2c2c1nc(CCO)n2CCCNC(=O)c1cc2ccccc2cn1 [Example 2, N-{3-[4-Amino-2-(2-hydroxyethyl)-1H-imidazo[4,5-c]quinolin-1-yl]propyl}isoquinoline-3-carboxamide] | 3.33 | 3.33 | – | – | – | –
230 to 232 | CC(C)(Cn1c(CO)nc2c(N)nc3ccccc3c21)CS(C)(=O)=O [Example 143, {4-Amino-1-[2,2-dimethyl-3-(methylsulfonyl)propyl]-1H-imidazo[4,5-c]quinolin-2-yl}methanol] | 1.11 | 30 | – | – | – | –
206 to 208 | CS(=O)(=O)NCCCCn1c(CCO)nc2c(N)nc3ccccc3c21 [Example 3, N-{4-[4-Amino-2-(2-hydroxyethyl)-1H-imidazo[4,5-c]quinolin-1-yl]butyl}methanesulfonamide] | 0.37 | > 30 | – | – | – | * (TNF below experimental background of 40 pg/mL.)
